Patent US20230014445A1, “ALLOSTERIC CHROMENONE INHIBITORS OF PHOSPHOINOSITIDE 3-KINASE (PI3K) FOR THE TREATMENT OF DISEASE” (Petra Pharma Corporation, priority 2021, published 2023)
Read-outs that look alike come from different tables or passages of the source.

Legend:
[1] = target: T1, human full length PIK3KA Wild-type (p110α/p85α complex) (Homo sapiens, UniProt P42336); assay: PI3K-Alpha Kinase (PIK3CA) biochemical activity, wild-type (ADP-Glo); details: Soy PI lipid substrate, 20 uM ATP
T1 construct: Recombinant, catalytically active human full length PIK3KA Wild-type and H1047R mutant were purchased; 6xHis (N); purchased EMD Millipore Sigma 14-602M
How it was run: (§1)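 ADP formation, measured by ADP-Glo luminescence after reaction to about 10% ATP conversion at 27° C., gives 10-point 4-parameter IC50 curves normalized to no-enzyme and DMSO controls. Lipid substrate was PIP2diC8 or Soy PI at 50 uM, with 20 uM ATP. WT or H1047R p110α/p85α complex (1-5 nM) was preincubated 1 h with compound.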

[2] = target: T2, human full length PIK3KA H1047R mutant (p110α/p85α complex) (Homo sapiens, UniProt P42336, H1047R); assay: PI3K-Alpha Kinase (PIK3CA) biochemical activity, H1047R mutant (ADP-Glo); details: Soy PI lipid substrate, 20 uM ATP
T2 construct: Recombinant, catalytically active human full length PIK3KA Wild-type and H1047R mutant were purchased; 6xHis (N); purchased EMD Millipore Sigma 14-792M
How it was run: as §1

[3] = target: PI3K-α (PIK3CA) in MDA-MB-453 cells (Homo sapiens, UniProt P42336); assay: PI3K-Alpha Kinase (PIK3CA) activity in vitro cell based assay (AlphaLisa SureFire)
How it was run: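 Serum-free MDA-MB-453 cells with 1 μg/mL insulin treated 3 h with a 10-point compound series in 0.3% DMSO; lysates analysed by AlphaLisa SureFire. Relative IC50 from 4-parameter fit of % inhibition versus DMSO (max) and 1 μM GDC-0032 (min) controls, duplicates.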

[4] = read-out: PI3K-α (PIK3CA) in vitro cell based assay IC50, 0% FBS, 3 hours treatment
[5] = 0% FBS, 3 hours treatment, read-out: PI3K-α (PIK3CA) in vitro cell based assay IC50

Chain of PI3K-α (PIK3CA) in MDA-MB-453 cells (P42336 whole entry): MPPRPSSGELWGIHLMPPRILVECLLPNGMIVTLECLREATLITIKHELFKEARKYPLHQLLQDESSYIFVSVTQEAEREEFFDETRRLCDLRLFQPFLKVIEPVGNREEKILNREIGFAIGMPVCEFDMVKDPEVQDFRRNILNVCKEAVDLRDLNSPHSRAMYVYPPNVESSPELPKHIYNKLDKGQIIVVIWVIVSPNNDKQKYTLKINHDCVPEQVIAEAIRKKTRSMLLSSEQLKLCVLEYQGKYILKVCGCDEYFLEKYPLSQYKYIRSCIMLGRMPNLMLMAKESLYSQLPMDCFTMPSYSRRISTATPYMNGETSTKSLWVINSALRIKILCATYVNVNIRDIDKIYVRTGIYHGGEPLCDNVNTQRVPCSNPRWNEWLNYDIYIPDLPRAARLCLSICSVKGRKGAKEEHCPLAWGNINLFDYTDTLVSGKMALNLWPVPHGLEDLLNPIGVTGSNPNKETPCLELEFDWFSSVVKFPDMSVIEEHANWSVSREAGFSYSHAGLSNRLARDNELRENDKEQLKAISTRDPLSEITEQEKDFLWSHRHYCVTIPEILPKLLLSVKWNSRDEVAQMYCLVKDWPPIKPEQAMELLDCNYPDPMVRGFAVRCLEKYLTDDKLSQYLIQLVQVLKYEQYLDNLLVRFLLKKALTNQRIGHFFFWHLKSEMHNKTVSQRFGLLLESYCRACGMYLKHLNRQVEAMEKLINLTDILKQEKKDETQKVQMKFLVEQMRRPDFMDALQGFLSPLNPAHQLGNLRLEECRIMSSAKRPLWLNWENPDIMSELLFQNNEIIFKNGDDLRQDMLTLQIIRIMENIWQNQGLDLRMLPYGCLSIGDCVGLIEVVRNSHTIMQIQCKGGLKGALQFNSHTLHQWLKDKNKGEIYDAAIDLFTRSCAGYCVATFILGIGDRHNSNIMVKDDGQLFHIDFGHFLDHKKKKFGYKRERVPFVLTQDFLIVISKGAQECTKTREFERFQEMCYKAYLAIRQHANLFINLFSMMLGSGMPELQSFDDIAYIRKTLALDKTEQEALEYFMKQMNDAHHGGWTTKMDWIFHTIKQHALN
Chain of PI3K-α (PIK3CA) in MDA-MB-453 cells (P27986 2-724, further chain): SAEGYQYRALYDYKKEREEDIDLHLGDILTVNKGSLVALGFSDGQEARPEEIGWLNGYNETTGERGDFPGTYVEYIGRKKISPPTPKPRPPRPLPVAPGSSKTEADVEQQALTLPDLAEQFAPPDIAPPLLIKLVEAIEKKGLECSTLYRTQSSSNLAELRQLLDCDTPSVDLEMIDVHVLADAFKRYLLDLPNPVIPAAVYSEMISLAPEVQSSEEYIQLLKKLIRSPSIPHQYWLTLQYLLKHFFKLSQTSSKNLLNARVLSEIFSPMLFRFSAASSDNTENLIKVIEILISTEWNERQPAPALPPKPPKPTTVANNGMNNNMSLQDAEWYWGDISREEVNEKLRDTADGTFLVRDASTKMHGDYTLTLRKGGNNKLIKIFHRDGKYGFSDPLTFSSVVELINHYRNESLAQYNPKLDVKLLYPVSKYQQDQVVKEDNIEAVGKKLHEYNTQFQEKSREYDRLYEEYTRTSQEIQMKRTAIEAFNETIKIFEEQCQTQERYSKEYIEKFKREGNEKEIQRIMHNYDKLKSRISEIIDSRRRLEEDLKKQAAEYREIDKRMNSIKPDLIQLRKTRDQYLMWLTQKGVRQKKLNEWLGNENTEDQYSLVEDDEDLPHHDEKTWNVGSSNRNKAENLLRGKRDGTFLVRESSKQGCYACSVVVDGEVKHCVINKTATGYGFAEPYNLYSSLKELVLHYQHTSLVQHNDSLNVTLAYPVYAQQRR
T2 sequence (P42336 whole entry H1047R): as the sequence (P42336 whole entry) above, with H1047R counted along it
T2 sequence (P27986 whole entry partner): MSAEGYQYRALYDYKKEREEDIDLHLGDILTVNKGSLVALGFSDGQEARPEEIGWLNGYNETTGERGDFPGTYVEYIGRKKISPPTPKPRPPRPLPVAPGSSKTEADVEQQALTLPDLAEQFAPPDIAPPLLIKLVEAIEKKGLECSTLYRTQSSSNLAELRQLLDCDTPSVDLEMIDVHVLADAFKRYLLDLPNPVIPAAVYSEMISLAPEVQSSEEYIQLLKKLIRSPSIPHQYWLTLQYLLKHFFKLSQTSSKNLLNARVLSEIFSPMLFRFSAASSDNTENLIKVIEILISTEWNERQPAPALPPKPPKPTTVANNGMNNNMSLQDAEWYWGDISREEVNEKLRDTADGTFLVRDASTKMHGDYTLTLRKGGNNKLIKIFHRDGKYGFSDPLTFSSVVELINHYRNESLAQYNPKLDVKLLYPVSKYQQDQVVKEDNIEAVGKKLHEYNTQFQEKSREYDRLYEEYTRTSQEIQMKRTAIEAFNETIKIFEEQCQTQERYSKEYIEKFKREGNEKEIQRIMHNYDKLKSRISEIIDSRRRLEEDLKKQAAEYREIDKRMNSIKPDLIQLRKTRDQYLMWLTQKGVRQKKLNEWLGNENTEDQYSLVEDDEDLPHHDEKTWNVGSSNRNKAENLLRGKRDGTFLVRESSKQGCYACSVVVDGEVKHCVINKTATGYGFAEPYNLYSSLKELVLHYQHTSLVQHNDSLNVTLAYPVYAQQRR

Row | SMILES | IC50 [1] [µM] | IC50 [2] [µM] | IC50 [3, 5] [µM] | IC50 [3, 4] [µM]
1 | Cc1cc(C(C)Nc2ccccc2C(=O)O)c2oc(-c3cnn(-c4ccc(C#N)nc4)c3)cc(=O)c2c1 (single isomer, unassigned) [Example 82, 2-[1-[2-[1-(6-Cyano-3-pyridyl)pyrazol-4-yl]-6-methyl-4-oxo-chromen-8-yl]ethylamino]benzoic acid, Isomer 2,2,2,2-trifluoroacetic acid] | 1 to 5 | < 0.5 |  | 0.05 to 0.1
2 | Cc1cc(C(C)Nc2ccccc2C(=O)O)c2oc(-c3cnn(C(F)F)c3)cc(=O)c2c1 (single isomer, unassigned) [Example 52, 2-[1-[2-[1-(Difluoromethyl)pyrazol-4-yl]-6-methyl-4-oxo-chromen-8-yl]ethylamino]benzoic acid, Isomer 2,2,2,2-trifluoroacetic acid] | 1 to 5 | < 0.5 |  | 0.05 to 0.1
3 | Cc1cc(C(C)Nc2ccccc2C(=O)O)c2oc(-c3cnn(-c4ccc(C#N)cn4)c3)cc(=O)c2c1 (single isomer, unassigned) [Example 83, 2-[1-[2-[1-(5-Cyano-2-pyridyl)pyrazol-4-yl]-6-methyl-4-oxo-chromen-8-yl]ethylamino]benzoic acid, Isomer 2,2,2,2-trifluoroacetic acid] | > 10 | < 0.5 |  | 0.05 to 0.1
4 | Cc1cc(C(C)Nc2ccccc2C(=O)O)c2oc(-c3cnn(-c4cccc(C#N)c4)c3)c(C)c(=O)c2c1 (single isomer, unassigned) [Example 74, 2-[1-[2-[1-(3-Cyanophenyl)pyrazol-4-yl]-3,6-dimethyl-4-oxo-chromen-8-yl]ethylamino]benzoic acid, Isomer 1,2,2,2-trifluoroacetic acid] | 0.5 to 1 | < 0.5 |  | < 0.05
5 | Cc1cc(C(C)Nc2ccccc2C(=O)O)c2oc(-c3ccc(C4(C#N)CC4)nc3)c(C)c(=O)c2c1 (single isomer, unassigned) [Example 89, 2-[1-[2-[6-(1-Cyanocyclopropyl)-3-pyridyl]-3,6-dimethyl-4-oxo-chromen-8-yl]ethylamino]benzoic acid, Isomer 1,2,2,2-trifluoroacetic acid] | 1 to 5 | < 0.5 |  | < 0.05
6 | COc1ccc(-c2cc(=O)c3cc(C)cc(C(C)Nc4ccccc4C(=O)O)c3o2)cn1 (single isomer, unassigned; isomer 1) [Example 19, 2-[1-[2-(6-Methoxy-3-pyridyl)-6-methyl-4-oxo-chromen-8-yl]ethylamino]benzoic acid, Isomer 1] | > 10 | 5 to 10 | > 0.5 | 
7 | COc1ccc(-n2cc(-c3cc(=O)c4cc(C)cc(C(C)Nc5ccccc5C(=O)O)c4o3)cn2)cn1 (single isomer, unassigned) [Example 81, 2-[1-[2-[1-(6-Methoxy-3-pyridyl)pyrazol-4-yl]-6-methyl-4-oxo-chromen-8-yl]ethylamino]benzoic acid, Isomer 2,2,2,2-trifluoroacetic acid] | 5 to 10 | 0.5 to 1 |  | 0.05 to 0.1
8 | Cc1cc(C(C)Nc2ccccc2C(=O)O)c2oc(-c3cncc(F)c3)cc(=O)c2c1 (single isomer, unassigned) [Example 44, 2-[1-[2-(5-Fluoro-3-pyridyl)-6-methyl-4-oxo-chromen-8-yl]ethylamino]benzoic acid, Isomer 2,2,2,2-trifluoroacetic acid] | 1 to 5 | < 0.5 |  | < 0.05
9 | COc1cccc(-c2cc(=O)c3cc(C)cc(C(C)Nc4ccccc4C(=O)O)c3o2)n1 (single isomer, unassigned; isomer 1) [Example 21, 2-[1-[2-(6-Methoxy-2-pyridyl)-6-methyl-4-oxo-chromen-8-yl]ethylamino]benzoic acid, Isomer 1] | > 10 | 5 to 10 | > 0.5 | 
10 | COc1ccc(-n2cc(-c3cc(=O)c4cc(C)cc(C(C)Nc5ccccc5C(=O)O)c4o3)cn2)cc1 (single isomer, unassigned) [Example 79, 2-[1-[2-[1-(4-Methoxyphenyl)pyrazol-4-yl]-6-methyl-4-oxo-chromen-8-yl]ethylamino]benzoic acid, Isomer 2,2,2,2-trifluoroacetic acid] | 1 to 5 | < 0.5 |  | 0.05 to 0.1
11 | Cc1cc(C(C)Nc2ccccc2C(=O)O)c2oc(-c3cnc(-c4ccccc4)s3)c(C)c(=O)c2c1 (single isomer, unassigned) [Example 126, 2-[1-[3,6-Dimethyl-4-oxo-2-(2-phenylthiazol-5-yl)chromen-8-yl]ethylamino]benzoic acid, Isomer 1,2,2,2-trifluoroacetic acid] | < 0.5 | < 0.5 |  | 0.05 to 0.1
12 | Cc1cc(C(C)Nc2ccc(Cl)nc2C(=O)O)c2oc(-c3ccccn3)c(C)c(=O)c2c1 (single isomer, unassigned) [Example 121, 6-Chloro-3-[1-[3,6-dimethyl-4-oxo-2-(2-pyridyl)chromen-8-yl]ethylamino]pyridine-2-carboxylic acid, Isomer 1,2,2,2-trifluoroacetic acid] | 1 to 5 | < 0.5 |  | < 0.05

Now from value to molecule, other results behind:

Row | IC50 [1] [µM] | IC50 [2] [µM] | IC50 [3, 5] [µM] | SMILES | IC50 [3, 4] [µM]
13 | 0.5 to 1 | < 0.5 | < 0.05 | Cc1c(-c2ccccn2)oc2c(C(C)Nc3ccc(Cl)nc3C(=O)O)cc(C(F)(F)F)cc2c1=O (single isomer, unassigned; isomer 1) [Example 61, 6-Chloro-3-[1-[3-methyl-4-oxo-2-(2-pyridyl)-6-(trifluoromethyl)chromen-8-yl]ethylamino]pyridine-2-carboxylic acid, Isomer 1] | 
14 | 1 to 5 | < 0.5 | 0.1 to 0.5 | Cc1cc(C(C)Nc2cccc(F)c2C(=O)O)c2oc(-c3cnn(-c4ccc(C#N)cc4)c3)cc(=O)c2c1 (single isomer, unassigned; isomer 2) [Example 113, 2-[1-2-[1-(4-Cyanophenyl)pyrazol-4-yl]-6-methyl-4-oxo-chromen-8-yl]ethylamino]-6-fluoro-benzoic acid, Isomer 2] | 
15 | 1 to 5 | < 0.5 | 0.05 to 0.1 | Cc1cc(C(C)Nc2ccc(C(F)(F)F)cc2C(=O)O)c2oc(-c3cccnc3)c(C)c(=O)c2c1 (single isomer, unassigned; isomer 1) [Example 119, 2-[1-[3,6-Dimethyl-4-oxo-2-(3-pyridyl)chromen-8-yl]ethylamino]-5-(trifluoromethyl)benzoic acid, Isomer 1] | 
16 | 0.5 to 1 | < 0.5 | < 0.05 | Cc1cc(C(C)Nc2ccccc2C(=O)O)c2oc(-c3cncc(F)c3)c(C)c(=O)c2c1 (single isomer, unassigned; isomer 1) [Example 45, 2-[1-[2-(5-Fluoro-3-pyridyl)-3,6-dimethyl-4-oxo-chromen-8-yl]ethylamino]benzoic acid, Isomer 1] | 
17 | 5 to 10 | < 0.5 | 0.05 to 0.1 | Cc1cc(C(C)Nc2ccccc2C(=O)O)c2oc(-c3cnc(OC(C)C)nc3)cc(=O)c2c1 (single isomer, unassigned; isomer 2) [Example 42, 2-[1-[2-(2-Isopropoxypyrimidin-5-yl)-6-methyl-4-oxo-chromen-8-yl]ethylamino]benzoic acid, Isomer 2] | 
18 | 5 to 10 | < 0.5 | 0.05 to 0.1 | CC(Nc1ccccc1C(=O)O)c1cc(C(F)(F)F)cc2c(=O)cc(-c3ccccn3)oc12 (single isomer, unassigned; isomer 1) [Example 76, 2-[1-[4-Oxo-2-(2-pyridyl)-6-(trifluoromethyl)chromen-8-yl]ethylamino]benzoic acid, Isomer 1] | 
19 | 0.5 to 1 | < 0.5 | < 0.05 | Cc1cc(C(C)Nc2ccccc2C(=O)O)c2oc(-c3cnc(N(C)C)s3)c(C)c(=O)c2c1 (single isomer, unassigned; isomer 1) [Example 130, 2-[1-[2-[2-(Dimethylamino)thiazol-5-yl]-3,6-dimethyl-4-oxo-chromen-8-yl]ethylamino]benzoic acid, Isomer 1] | 
20 | 5 to 10 | < 0.5 | 0.05 to 0.1 | Cc1cc(C(C)Nc2cccnc2C(=O)O)c2oc(-c3cccnc3)c(C)c(=O)c2c1 (single isomer, unassigned; isomer 1) [Example 116, 3-[1-[3,6-Dimethyl-4-oxo-2-(3-pyridyl)chromen-8-yl]ethylamino]pyridine-2-carboxylic acid, Isomer 1] | 
21 | 0.5 to 1 | < 0.5 | < 0.05 | Cc1cc(C(C)Nc2ccc(Cl)cc2C(=O)O)c2oc(-c3cccnc3)c(C)c(=O)c2c1 (single isomer, unassigned; isomer 1) [Example 132, 5-Chloro-2-[1-[3,6-dimethyl-4-oxo-2-(3-pyridyl)chromen-8-yl]ethylamino]benzoic acid, Isomer 1] | 
22 | > 10 | > 10 | > 0.5 | Cc1cc(C(C)Nc2ccccc2C(=O)O)c2oc(-c3cnc(OC(C)C)nc3)cc(=O)c2c1 (single isomer, unassigned; isomer 1) [Example 41, 2-[1-[2-(2-Isopropoxypyrimidin-5-yl)-6-methyl-4-oxo-chromen-8-yl]ethylamino]benzoic acid, Isomer 1] | 
